Assay [1] concerns the target T1, human D3 receptors (Homo sapiens, UniProt P35462). Description: Radioligand binding assay with [125I]IABN, D3 receptor. Details: expressed in transfected cells; host or cells: HEK293. Conditions: for Ki: [125I]IABN, D3 receptors expressed in HEK cells, mean ± SEM, three experiments, HCl salts, read-out: Ki ± SEM (nM) D3; for D2/D3: selectivity ratio of Ki D2 / Ki D3 (fold). The protocol: (§1) Two different assays were used to evaluate the properties of the analogs described above. The receptor binding affinity was measured by radioligand binding assays using [^125I]IABN with D2 or D3 receptors highly expressed HEK293 cells. The functional activity of the analogs was determined using a β-arrestin recruitment assay. The assay was initially conducted in agonist binding mode to confirm that they function as antagonists at the D3 receptor. Once this efficacy was confirmed, the assay was conducted in antagonist mode to determine the ability of the antagonist to compete with dopamine at the D3 receptor. The results of the antagonist mode assay are reported as IC50 values.
(§2) Ki values for D2 and D3 receptors were measured using [^125I]IABN in human D2 and D3 receptors expressed in HEK cells, respectively. A filtration binding assay was used to characterize membrane-associated receptor binding properties. The details for the procedures were described in the literature.

The target in assay [2] is T1, human D3 receptors. Description: β-arrestin recruitment assay (antagonist mode, competition with dopamine). Details: expressed in transfected cells. Conditions: for Emax: percentage of the maximum inhibition of dopamine at EC80 concentration, read-out: Imax (% Control); for IC50: potency for D3 receptors, CHO-K1 cells, vs 30 nM (EC80) dopamine, mean ± SD, three experiments, read-out: IC50. The format is cell-based. The protocol:
as §1
CHO-K1 cells which were overexpressed human D3 receptors were cultured in assaycomplete^TM cell culture kit 107. Cells were seeded at a density of 25,000 cells per well of 96-well plate, and incubated at 5% CO2, 37 °C. Two days later, test compounds were dissolved in DMSO, and diluted with 11-point series in phosphate-buffered saline (PBS). Prepared compounds were added to the cells, and it was incubated for 30 min at 5% CO2, 37 °C. Then, cells were treated with 30 nM (EC80) of dopamine, and the plate was incubated another 90 min. PathHunter^TM detection reagent was added to each well, and then plate was incubated for 80 min at RT in the dark. The chemiluminescent signal was measured by PerkinElmer Enspire plate reader (PerkinElmer, Boston, MA). Data were analyzed by Prism followed by non-linear regression.
A general note: Arrestin recruitment assays detect the binding of arrestin to an activated receptor.

The target in a further assay is T2, human D2 receptors (Homo sapiens, UniProt P14416).
T2 construct: expressed in transfected cells; host or cells: HEK293
The assay can be described thus: Radioligand binding assay with [125I]IABN, D2 receptor. Conditions: [125I]IABN, D2 receptors expressed in HEK cells; mean ± SEM, three experiments; HCl salts; read-out: Ki ± SEM (nM) D2. The protocol: Two different assays were used to evaluate the properties of the analogs described above. The receptor binding affinity was measured by radioligand binding assays using [^125I]IABN with D2 or D3 receptors highly expressed HEK293 cells. The functional activity of the analogs was determined using a β-arrestin recruitment assay. […] The results of the antagonist mode assay are reported as IC50 values.
as §2

The next assay deals with D2 receptors. Conditions: cited from earlier work.

Data on 16 compounds can be found in publication PMC9820167, “Design and Synthesis of Conformationally Flexible Scaffold as Bitopic Ligands for Potent D3-Selective Antagonists” (International Journal of Molecular Sciences, 2022).

Like-named read-outs stand apart in the source and are kept apart here.

For orientation: IC50 means the point on the concentration scale where inhibition reaches its midpoint.

T1 sequence (P35462 whole entry): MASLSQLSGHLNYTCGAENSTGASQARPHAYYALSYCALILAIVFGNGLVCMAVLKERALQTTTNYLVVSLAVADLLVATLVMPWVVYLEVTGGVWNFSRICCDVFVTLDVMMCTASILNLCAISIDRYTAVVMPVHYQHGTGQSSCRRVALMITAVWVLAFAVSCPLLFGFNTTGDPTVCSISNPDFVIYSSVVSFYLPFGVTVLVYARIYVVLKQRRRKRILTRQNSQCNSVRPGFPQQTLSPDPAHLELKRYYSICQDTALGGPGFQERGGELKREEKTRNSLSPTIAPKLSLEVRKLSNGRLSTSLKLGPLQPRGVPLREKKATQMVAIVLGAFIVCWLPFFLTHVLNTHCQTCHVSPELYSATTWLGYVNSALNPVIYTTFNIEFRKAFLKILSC
T2 sequence (P14416 whole entry): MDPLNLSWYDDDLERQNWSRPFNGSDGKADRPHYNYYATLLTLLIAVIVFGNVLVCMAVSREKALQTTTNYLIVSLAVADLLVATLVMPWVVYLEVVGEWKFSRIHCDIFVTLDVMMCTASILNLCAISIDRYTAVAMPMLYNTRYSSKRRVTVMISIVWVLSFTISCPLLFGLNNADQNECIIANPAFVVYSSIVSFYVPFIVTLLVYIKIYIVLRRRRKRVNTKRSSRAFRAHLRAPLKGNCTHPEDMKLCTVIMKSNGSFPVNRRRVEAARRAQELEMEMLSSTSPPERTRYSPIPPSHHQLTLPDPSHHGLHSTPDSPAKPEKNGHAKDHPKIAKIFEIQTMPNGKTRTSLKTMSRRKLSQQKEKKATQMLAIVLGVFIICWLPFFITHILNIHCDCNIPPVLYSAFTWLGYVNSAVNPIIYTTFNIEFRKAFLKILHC

Turning to `CCN(CCCCN(C)C)CCNC(=O)c1cc(CCCF)cc(OC)c1OC` [6a, N-(2-((4-(Dimethylamino)butyl)(ethyl)amino)ethyl)-5-(3-fluoropropyl)-2,3-dimethoxybenzamide], on human D3 receptors [1], the Ki is 1760 ± 942 nM and the D2/D3 amounted to 2.6. Besides, at human D3 receptors [2], the Emax came out at 92.7 ± 5.4% and the IC50 was > 1000 nM. On human D2 receptors, the Ki came out at 4560 ± 2450 nM.
Turning to `CCN(CCCCCN(C)C)CCNC(=O)c1cc(CCCF)cc(OC)c1OC` [6b, N-(2-((5-(Dimethylamino)pentyl)(ethyl)amino)ethyl)-5-(3-fluoropropyl)-2,3-dimethoxybenzamide], at human D3 receptors [1], the Ki was 1240 ± 438 nM and the D2/D3 is recorded as 2.3. Moreover, on human D3 receptors [2], the Emax was found to be 98.4 ± 2.9% and the IC50 was 430 ± 467 nM. The Ki on human D2 receptors was determined as 2810 ± 571 nM.
Regarding `CCN(CCCCN(C)C)CCNC(=O)c1cc(Br)cc(OC)c1OC` [6c, 5-Bromo-N-(2-((4-(dimethylamino)butyl)(ethyl)amino)ethyl)-2,3-dimethoxybenzamide], at human D3 receptors [1], the Ki was 1630 ± 165 nM and the D2/D3 is 3.3. Also, at human D3 receptors [2], the Emax is 98 ± 5.6% and the half-maximal inhibitory concentration (IC50) was > 1000 nM. Moreover, on human D2 receptors, the Ki was 5420 ± 1040 nM.
Consider `CCN(CCCCCN(C)C)CCNC(=O)c1cc(Br)cc(OC)c1OC` [6d, 5-Bromo-N-(2-((5-(dimethylamino)pentyl)(ethyl)amino)ethyl)-2,3-dimethoxybenzamide], for which, at human D3 receptors [1], the Ki came to 141 ± 26 nM and the D2/D3 was 3.2. Besides, at human D3 receptors [2], the Emax is 94 ± 6.4% and the IC50 was 152 ± 185 nM. Besides, on human D2 receptors, the Ki stood at 449 ± 90 nM.
`CCN(CCCCNC(=O)c1ccc(-c2cccs2)cc1)CCNC(=O)c1cc(Br)cc(OC)c1OC` [9b, 5-Bromo-N-(2-(ethyl(4-(4-(thiophen-2-yl)benzamido)butyl)amino)ethyl)-2,3-dimethoxybenzamide]: on human D3 receptors [1], the Ki was 8 ± 0.8 nM and the D2/D3 is given as 12.9. Moreover, on human D3 receptors [2], the Emax worked out at 70.8 ± 7.3% and the IC50 was found to be 104 ± 136 nM. For the same compound, the Ki at human D2 receptors worked out at 103 ± 14 nM.
Turning to `CCN(CCCCSc1nnc(-c2ccccc2)n1C)CCNC(=O)c1cc(Br)cc(OC)c1OC` [11a, 5-Bromo-N-(2-(ethyl(4-((4-methyl-5-phenyl-4H-1,2,4-triazol-3-yl)thio)butyl)amino)ethyl)-2,3-dimethoxybenzamide], the figures for the Ki at human D3 receptors [1] and at human D2 receptors were 125 ± 2 nM and 342 ± 23 nM, respectively. Also, the D2/D3 on human D3 receptors [1] is 2.7.
Turning to `CCN(CCCCCSc1nnc(-c2ccccc2)n1C)CCNC(=O)c1cc(Br)cc(OC)c1OC` [11b, 5-Bromo-N-(2-(ethyl(5-((4-methyl-5-phenyl-4H-1,2,4-triazol-3-yl)thio)pentyl)amino)ethyl)-2,3-dimethoxybenzamide], on human D3 receptors [1], the Ki was determined as 22.2 ± 1.8 nM and the D2/D3 was 4.6. Also, the Ki at human D2 receptors worked out at 89.7 ± 3.6 nM.
For `C=CCN(CCCNC(=O)c1ccc(-c2cccs2)cc1)CCNC(=O)c1cc(Br)cc(OC)c1OC` [20b, N-(2-(Allyl(3-(4-(thiophen-2-yl)benzamido)propyl)amino)ethyl)-5-bromo-2,3-dimethoxybenzamide], at human D3 receptors [1], the Ki was found to be 5.8 ± 1 nM and the D2/D3 is 46.7. In addition, at human D3 receptors [2], the Emax was 101 ± 7.9% and the IC50 was 51.6 ± 40.8 nM. Further, the Ki at human D2 receptors amounted to 243 ± 15 nM.
For `COc1cc(Br)cc(C(=O)NCCN(CCCNC(=O)c2ccc(-c3cccs3)cc2)Cc2ccc(F)cc2)c1OC` [20c, 5-Bromo-N-(2-((4-fluorobenzyl)(3-(4-(thiophen-2-yl)benzamido)propyl)amino)ethyl)-2,3-dimethoxybenzamide], the Ki was determined as 299 ± 101 nM on human D3 receptors [1] and 574 ± 170 nM on human D2 receptors. For the same compound, the D2/D3 on human D3 receptors [1] was determined as 1.9.
For the compound `CCN(CCCNC(=O)c1ccnc2ccccc12)CCNC(=O)c1cc(Br)cc(OC)c1OC` [21b, N-(3-((2-(5-Bromo-2,3-dimethoxybenzamido)ethyl)(ethyl)amino)propyl)quinoline-4-carboxamide], on human D3 receptors [1], the Ki amounted to 13.2 ± 0.5 nM and the D2/D3 worked out at 39.8. For the same compound, at human D3 receptors [2], the Emax was found to be 75.2 ± 4.8% and the IC50 was 19.6 ± 23.7 nM.
As to `CCN(CCCNC(=O)c1ccncc1)CCNC(=O)c1cc(Br)cc(OC)c1OC` [21f, N-(3-((2-(5-Bromo-2,3-dimethoxybenzamido)ethyl)(ethyl)amino)propyl)isonicotinamide], on human D3 receptors [1], the Ki stood at 6.1 ± 0.6 nM and the D2/D3 is 53.7. Also, at human D3 receptors [2], the Emax came out at 85.7 ± 13.1% and the IC50 stood at 2.7 ± 0.6 nM. The Ki on human D2 receptors was 327 ± 32 nM.
On to `CCN(CCCNC(=O)c1cccc(N(C)C)c1)CCNC(=O)c1cc(Br)cc(OC)c1OC` [21h, 5-Bromo-N-(2-((3-(3-(dimethylamino)benzamido)propyl)(ethyl)amino)ethyl)-2,3-dimethoxybenzamide], for which, at human D3 receptors [1], the Ki stood at 11.2 ± 1.4 nM and the D2/D3 was 22.1. In addition, at human D3 receptors [2], the Emax stood at 73.8 ± 14.9% and the half-inhibitory concentration (IC50) amounted to 4.1 ± 2.1 nM. In addition, on human D2 receptors, the Ki worked out at 248 ± 19 nM.
For `CCN1CCC[C@H]1CNC(=O)c1cc(Br)cc(OC)c1OC` [[^11C]FLB457, FLB457], the Ki at D2 receptors (read-out: Ki for D2/D3 receptors (D2)) is 0.02 nM.
Regarding `CCN(C)CCNC(=O)c1cc(Br)cc(OC)c1OC` [compound 12, 5-Bromo-N-(2-(ethyl(methyl)amino)ethyl)-2,3-dimethoxybenzamide], the results for the Ki at human D3 receptors [1] and on human D2 receptors were 21.8 ± 5.1 nM and 89.2 ± 5.6 nM, respectively.
For `CCN(C)CCCNC(=O)c1ccc(-c2cccs2)cc1` [compound 14, N-(3-(Ethyl(methyl)amino)propyl)-4-(thiophen-2-yl)benzamide] the same measures were > 1000 nM and > 1000 nM.
Turning to `C=CCN1CCC[C@H]1CNC(=O)c1cc(CCCF)cc(OC)c1OC` [fallypride], the Ki at D2 receptors (read-out: Ki D2) is 0.02 nM.
